Experimental data from ChEMBL document CHEMBL1268888, “Antiviral activity of 2,3'-anhydro and related pyrimidine nucleosides against hepatitis B virus” (Bioorg Med Chem Lett, 2010).
In brackets after ≈: the same amount, converted by molar mass.

Assays:
[1] = Cytotoxicity against human HuH7 cells; format: cell-based, Huh-7
Hepatitis B virus [2] = test: Antiviral activity against HBV infected in human 2.2.15 cell; format: functional, organism-based; settings: HepG2 2.2.15
Hepatitis B virus [3] = test: Antiviral activity against HBV infected in human 2.2.15 cell at 10 ug/ml; format: functional, organism-based; settings: HepG2 2.2.15
[4] = Stability of the compound in fetal bovine serum at 37 degC after 24 hrs; format: ADME; settings: cattle
Hepatitis B virus [5] = test: Antiviral activity against HBV infected in duck primary hepatocytes; format: functional, organism-based; settings: Hepatocyte
Hepatitis B virus [6] = test: Antiviral activity against HBV infected in duck primary hepatocytes at 10 ug/ml; format: functional; settings: Hepatocyte
[7] = Stability of the compound in PBS buffer at physiological pH and 37 degC upto 48 hrs; format: physicochemical

Structure (SMILES)	CC50 [1] [µg/mL]	EC50 (Hepatitis B virus [2]) [µg/mL]	inhibition at 10 µg/mL (Hepatitis B virus [3]) [%]	Stability [4]	EC50 (Hepatitis B virus [5]) [µg/mL]	inhibition at 10 µg/mL (Hepatitis B virus [6]) [%]	Stability [7]
CCc1cn([C@@H]2O[C@H](CO)[C@@H](O)[C@@H]2F)c(=O)[nH]c1=O	> 200	< 10	90	–	–	–	–
O=c1ccn2c(n1)O[C@H]1C[C@H]2O[C@@H]1CO	> 200	5 (≈ 23.8 µM)	65	Stable	2.5 (≈ 11.9 µM)	67	Stable
O=c1nc2n(cc1F)[C@H]1C[C@H](O2)[C@@H](CO)O1	> 200	–	0	Stable	–	30	Stable
Cc1cn2c(nc1=O)O[C@H]1C[C@H]2O[C@@H]1CO	> 200	10 (≈ 44.6 µM)	54	Stable	10 (≈ 44.6 µM)	56	Stable
O=c1nc2n(cc1C(F)(F)F)[C@H]1C[C@H](O2)[C@@H](CO)O1	> 200	–	25	Stable	> 10	35	Stable
CCc1cn2c(nc1=O)O[C@H]1C[C@H]2O[C@@H]1CO	> 200	10 (≈ 42 µM)	51	Stable	–	32	Stable
CCc1cn2c(nc1=O)O[C@H]1[C@H](F)[C@H]2O[C@@H]1CO	> 200	10 (≈ 39 µM)	53	Stable	2.5 (≈ 9.76 µM)	65	Stable
Cc1cn([C@H]2C[C@@H](OS(C)(=O)=O)[C@@H](CO)O2)c(=O)[nH]c1=S	> 200	> 10	45	–	2.5 (≈ 7.43 µM)	70	–
Cc1cn([C@H]2C[C@@H](O)[C@@H](CO)O2)c(=O)[nH]c1=O	> 200	–	–	–	–	–	–
O=c1ccn([C@H]2C[C@H](O)[C@@H](CO)O2)c(=O)[nH]1 [DEOXYURIDINE]	> 200	–	0	–	–	–	–
Cc1cn([C@H]2C[C@H](O)[C@@H](CO)O2)c(=O)[nH]c1=O [DOXRIBTIMINE]	> 200	–	0	–	–	–	–
CCc1cn([C@H]2C[C@H](O)[C@@H](CO)O2)c(=O)[nH]c1=O [EDOXUDINE]	> 200	> 10	40	–	–	–	–
Nc1ccn([C@@H]2CS[C@H](CO)O2)c(=O)n1 [LAMIVUDINE]	> 200	0.2 (≈ 0.872 µM)	88	–	0.05 (≈ 0.218 µM)	96	–
O=c1[nH]c(=O)n([C@H]2C[C@H](O)[C@@H](CO)O2)cc1C(F)(F)F [TRIFLURIDINE]	> 200	–	0	–	–	–	–
